Earlier results, collected in PubChem BioAssay AID1259409 (Chemical Carcinogenesis Research Information System (CCRIS), 2018).

Test system: rodent chemically induced tumor inhibition, incidence and multiplicity
Test: CCRIS tumor inhibitor studies

SMILES: Oc1cc(O)c2c(c1)O[C@H](c1ccc(O)c(O)c1)[C@@H](O)C2
- tumour outcome (control, treated, inhibition, significance) (Carcinogen: 1,2-DIMETHYLHYDRAZINE [540-73-6], Species: RAT, Strain/Sex: WISTAR, Target Tissue: Type of Lesion: COLON, Dose [Carcinogen]: 20 MG/KG): 81.3%, 58.8%, 27.7%, p<0.05
- tumour outcome (control, treated, inhibition, significance) (Carcinogen: 7,12-DIMETHYLBENZ[A]ANTHRACENE, 57-97-6, Dose [Inhibitor]: 0, 0.2 ML OF A 1% SOLUTION 1/D FOR 2 WK APPLIED 5 MIN POST EACH CARCINOGEN DOSE THEN 1/D FOR 4 WK DURING PROMOTION STAGE, Route [Inhibitor]: DERMAL, Species: MOUSE, Strain/Sex: SWISS/MALE, Target Tissue: Type of Lesion: SKIN: PAPILLOMA, Dose [Carcinogen]: 0.2 ML OF A 0.24% SOLUTION IN DMSO 1/D FOR 2 WK, Promoter: CROTON OIL, 8001-28-3): 23/23 (100%), 16/23 (70%), 30%, not calculated
- tumour outcome (control, treated, inhibition, significance) (Carcinogen: 7,12-DIMETHYLBENZ[A]ANTHRACENE, 57-97-6, Dose [Inhibitor]: 0, 0.2 ML OF A 1% SOLUTION 1/D FOR 2 WK APPLIED 5 MIN PRIOR TO EACH CARCINOGEN DOSE (STUDY DURATION: 20 WK), Route [Inhibitor]: DERMAL, Species: MOUSE, Strain/Sex: SWISS/MALE, Target Tissue: Type of Lesion: SKIN: PAPILLOMA, Dose [Carcinogen]: 0.2 ML OF A 0.24% SOLUTION IN DMSO 1/D FOR 2 WK, Promoter: CROTON OIL, 8001-28-3): 23/23 (100%), 20/23 (87%), 13%, not calculated
- tumour outcome (control, treated, inhibition, significance) (Carcinogen: 7,12-DIMETHYLBENZ[A]ANTHRACENE, 57-97-6, Dose [Inhibitor]: 0, 2.5 MG/D IN DRINKING WATER FOR DURATION OF STUDY BEGINNING 2 WK PRIOR TO CARCINOGEN DOSE (STUDY DURATION: 6 MO), Route [Inhibitor]: ORAL, Species: RAT, Strain/Sex: WISTAR/FEMALE, Target Tissue: Type of Lesion: MAMMARY GLAND: TUMOR, Dose [Carcinogen]: 10 MG IN PEANUT OIL INJECTED INTO SUBCUTANEOUS POUCH CREATED IN THE 5TH AND 6TH MAMMARY GLAND REGION, Promoter: NONE USED): 20/20 (100%), 4/20 (20%), 80%, p<0.001
- tumour outcome (control, treated, inhibition, significance) (Carcinogen: 7,12-DIMETHYLBENZ[A]ANTHRACENE, 57-97-6, Dose [Inhibitor]: 0, 4 MG 2/WK FOR 20 WK BEGINNING 2 WK POST CARCINOGEN DOSE (STUDY DURATION: 22 WK), Route [Inhibitor]: DERMAL, Species: MOUSE, Strain/Sex: CF-1/FEMALE, Target Tissue: Type of Lesion: SKIN: PAPILLOMA, Dose [Carcinogen]: 25.6 UG ONCE, Promoter: 12-O-TETRADECANOYLPHORBOL-13-ACETATE, 16561-29-8): 97%, 97%, 0%, not significant
- tumour outcome (control, treated, inhibition, significance) (Carcinogen: 7,12-DIMETHYLBENZ[A]ANTHRACENE, 57-97-6, Dose [Inhibitor]: 0, 12 MG 2/WK FOR 20 WK BEGINNING 2 WK POST CARCINOGEN DOSE (STUDY DURATION: 22 WK), Route [Inhibitor]: DERMAL, Species: MOUSE, Strain/Sex: CF-1/FEMALE, Target Tissue: Type of Lesion: SKIN: PAPILLOMA, Dose [Carcinogen]: 25.6 UG ONCE, Promoter: 12-O-TETRADECANOYLPHORBOL-13-ACETATE, 16561-29-8): 97%, 91%, 6%, not significant
- tumour outcome (control, treated, inhibition, significance) (Carcinogen: BENZO[A]PYRENE, 50-32-8, Dose [Inhibitor]: 0, 2.5 MG/D IN DRINKING WATER FOR 8 WK BEGINNING 2 WK PRIOR TO CARCINOGEN TREATMENT (STUDY DURATION: 20 WK), Route [Inhibitor]: ORAL, Species: MOUSE, Strain/Sex: SWISS/FEMALE, Target Tissue: Type of Lesion: FORESTOMACH: TUMOR, Dose [Carcinogen]: 1 MG IN 0.1 ML PEANUT OIL 2/WK FOR 4 WK, Promoter: NONE USED): 20/20 (100%), 16/20 (80%), 20%, not significant
- tumour outcome (control, treated, inhibition, significance) (Carcinogen: METHYL(ACETOXYMETHYL)NITROSAMINE, 56856-83-8, Dose [Inhibitor]: 0, 1.7 MG/D IN DRINKING WATER FOR DURATION OF STUDY BEGINNING 2 WK PRIOR TO CARCINOGEN TREATMENT (STUDY DURATION: 13 MO), Route [Inhibitor]: ORAL, Species: HAMSTER, Strain/Sex: SYRIAN/FEMALE, Target Tissue: Type of Lesion: ORAL: CAVITY, Dose [Carcinogen]: 2 MG/KG BW APPLIED TO RIGHT CHEEK POUCH 2/MO FOR 6 MO, Promoter: NONE USED): 14/15 (93%), 4/15 (27%), 71%, p<0.001
- tumour outcome (control, treated, inhibition, significance) (Carcinogen: N-ETHYL-N-HYDROXYETHYLNITROSAMINE, 13147-25-6, Dose [Inhibitor]: 0, 0.8% IN DIET FOR 36 WK BEGINNING 1 WK POST CARCINOGEN TREATMENT (STUDY DURATION: 40 WK), Route [Inhibitor]: ORAL, Species: RAT, Strain/Sex: WISTAR/MALE, Target Tissue: Type of Lesion: KIDNEY: MICROADENOMA, Dose [Carcinogen]: 0.1% IN DRINKING WATER FOR 3 WK, Promoter: NONE USED): 11/17 (65%), 12/17 (71%), -9%, not significant
- tumour outcome (control, treated, inhibition, significance) (Carcinogen: N-ETHYL-N-HYDROXYETHYLNITROSAMINE, 13147-25-6, Dose [Inhibitor]: 0, 0.8% IN DIET FOR 36 WK BEGINNING 1 WK POST CARCINOGEN TREATMENT (STUDY DURATION: 40 WK), Route [Inhibitor]: ORAL, Species: RAT, Strain/Sex: WISTAR/MALE, Target Tissue: Type of Lesion: KIDNEY: RENAL CELL TUMOR, Dose [Carcinogen]: 0.1% IN DRINKING WATER FOR 3 WK, Promoter: NONE USED): 14/17 (82%), 11/17 (65%), 21%, not significant
- tumour outcome (control, treated, inhibition, significance) (Carcinogen: N-ETHYL-N-HYDROXYETHYLNITROSAMINE, 13147-25-6, Dose [Inhibitor]: 0, 0.8% IN DIET FOR 36 WK BEGINNING 1 WK POST CARCINOGEN TREATMENT (STUDY DURATION: 40 WK), Route [Inhibitor]: ORAL, Species: RAT, Strain/Sex: WISTAR/MALE, Target Tissue: Type of Lesion: LIVER: HEPATOCELLULAR ADENOMA, Dose [Carcinogen]: 0.1% IN DRINKING WATER FOR 3 WK, Promoter: NONE USED): 10/17 (59%), 11/17 (65%), -10%, not significant
- tumour outcome (control, treated, inhibition, significance) (Carcinogen: N-ETHYL-N-HYDROXYETHYLNITROSAMINE, 13147-25-6, Dose [Inhibitor]: 0, 0.8% IN DIET FOR 36 WK BEGINNING 1 WK POST CARCINOGEN TREATMENT (STUDY DURATION: 40 WK), Route [Inhibitor]: ORAL, Species: RAT, Strain/Sex: WISTAR/MALE, Target Tissue: Type of Lesion: LIVER: HEPATOCELLULAR CARCINOMA, Dose [Carcinogen]: 0.1% IN DRINKING WATER FOR 3 WK, Promoter: NONE USED): 7/17 (41%), 3/17 (18%), 56%, not significant
- tumour outcome (control, treated, inhibition, significance) (Carcinogen: N-NITROSOBIS(2-HYDROXYPROPYL)AMINE, 53609-64-6, Dose [Inhibitor]: 0, 1.5% IN DIET FOR 30 WK BEGINNING POST CARCINOGEN TREATMENT (STUDY DURATION: 35 WK), Route [Inhibitor]: ORAL, Species: HAMSTER, Strain/Sex: SYRIAN/MALE, Target Tissue: Type of Lesion: PANCREAS: ADENOCARCINOMA, Dose [Carcinogen]: 500 MG/KG 1/WK FOR 5 WK, Promoter: NONE USED): 8/17 (47%), 5/19 (26%), 45%, not significant
- tumour outcome (control, treated, inhibition, significance) (Carcinogen: NONE USED, Dose [Inhibitor]: 0, 2.5 MG/D IN DRINKING WATER FROM 8 MO OF AGE (STUDY DURATION: 15 MO), Route [Inhibitor]: ORAL, Species: MOUSE, Strain/Sex: C3H/FEMALE, Target Tissue: Type of Lesion: MAMMARY GLAND: TUMOR, Promoter: NONE USED): 12/20 (60%), 8/20 (40%), 33%, not calculated

SMILES: CS(=O)(=O)c1ccc(C2=C(c3ccccc3)C(=O)OC2)cc1
- tumour outcome (control, treated, inhibition, significance) (Carcinogen: N-METHYL-N-NITROSOUREA, 684-93-5, Dose [Inhibitor]: 0.001% IN DIET, BEGINNING 7 D BEFORE FIRST CARCINOGEN DOSE FOR 19 WK (STUDY DURATION: 19 WK), Route [Inhibitor]: ORAL, Species: RAT, Strain/Sex: SPRAGUE-DAWLEY/FEMALE, Target Tissue: Type of Lesion: MAMMARY GLAND: TUMOR, Dose [Carcinogen]: 50 MG/KG 1 WK FOR 2 WK): 16/23 (69.6%), 10/24 (41.7%), 40%, not significant
- tumour outcome (control, treated, inhibition, significance) (Carcinogen: N-METHYL-N-NITROSOUREA, 684-93-5, Dose [Inhibitor]: 0.005% IN DIET, BEGINNING 7 D BEFORE FIRST CARCINOGEN DOSE FOR 19 WK (STUDY DURATION: 19 WK), Route [Inhibitor]: ORAL, Species: RAT, Strain/Sex: SPRAGUE-DAWLEY/FEMALE, Target Tissue: Type of Lesion: MAMMARY GLAND: TUMOR, Dose [Carcinogen]: 50 MG/KG 1 WK FOR 2 WK): 16/23 (69.6%), 10/25 (40%), 42.5%, p< 0.05

SMILES: CC(=C/C=C/C(C)=C/C=C/C=C(C)/C=C/C=C(\C)C=C=C1C(C)(C)C[C@H](O)C[C@@]1(C)O)/C=C/[C@@]12O[C@]1(C)C[C@@H](O)CC2(C)C
- tumour outcome (control, treated, inhibition, significance) (Carcinogen: 7,12-DIMETHYLBENZ[A]ANTHRACENE, 57-97-6, Dose [Inhibitor]: 0, 0.2 UG IN 0.2 ML ACETONE APPLIED TO BUCCAL POUCH 2/WK FOR 2 WK 1 HR PRIOR TO EACH PROMOTER DOSE (STUDY DURATION: 34 W, Route [Inhibitor]: MUCOUS MEMBRANE, Species: HAMSTER, Strain/Sex: SYRIAN/MALE,FEMALE, Target Tissue: Type of Lesion: BUCCAL POUCH: TUMOR, Dose [Carcinogen]: 200 NMOL IN 0.2 ML ACETONE 3/WK FOR 2 WK, Promoter: 12-O-TETRADECANOYLPHORBOL-13-ACETATE, 16561-29-8): 3/6 (50%), 0/6 (0%), 100%, not calculated
- tumour outcome (control, treated, inhibition, significance) (Carcinogen: 7,12-DIMETHYLBENZ[A]ANTHRACENE, 57-97-6, Dose [Inhibitor]: 0, 0.2 UG IN 0.2 ML ACETONE APPLIED TO BUCCAL POUCH 3/WK FOR 2 WK 1 HR PRIOR TO EACH CARCINOGEN DOSE (STUDY DURATION: 34, Route [Inhibitor]: MUCOUS MEMBRANE, Species: HAMSTER, Strain/Sex: SYRIAN/MALE,FEMALE, Target Tissue: Type of Lesion: BUCCAL POUCH: TUMOR, Dose [Carcinogen]: 200 NMOL IN 0.2 ML ACETONE 3/WK FOR 2 WK, Promoter: 12-O-TETRADECANOYLPHORBOL-13-ACETATE, 16561-29-8): 3/6 (50%), 0/6 (0%), 100%, not calculated
